Reference: patent US11542240B2, “STK19 inhibitors for treatment of cancer” (TRUSTEES OF BOSTON UNIVERSITY, priority 2018, dated 2023)
Read-outs that look alike come from different tables or passages of the source.

Experiments:
Assay in all cases: biochemical
Type in all cases: binding
[1] = biological target: panel of 468 diverse kinases (Homo sapiens, UniProt P06241); details: FYN; 1000 nM; read-out: Percent Control
[2] = biological target: panel of 468 diverse kinases (Homo sapiens, UniProt Q00532); details: CDKL1; 1000 nM; read-out: Percent Control
[3] = biological target: panel of 468 diverse kinases (Homo sapiens, UniProt P43403); details: ZAP70; 1000 nM; read-out: Percent Control
[4] = biological target: panel of 468 diverse kinases (Homo sapiens, UniProt Q13233); details: MAP3K1; 1000 nM; read-out: Percent Control
Sequence of panel of 468 diverse kinases (Homo sapiens, UniProt Q13233) (Q13233 2-1512 limits assumed): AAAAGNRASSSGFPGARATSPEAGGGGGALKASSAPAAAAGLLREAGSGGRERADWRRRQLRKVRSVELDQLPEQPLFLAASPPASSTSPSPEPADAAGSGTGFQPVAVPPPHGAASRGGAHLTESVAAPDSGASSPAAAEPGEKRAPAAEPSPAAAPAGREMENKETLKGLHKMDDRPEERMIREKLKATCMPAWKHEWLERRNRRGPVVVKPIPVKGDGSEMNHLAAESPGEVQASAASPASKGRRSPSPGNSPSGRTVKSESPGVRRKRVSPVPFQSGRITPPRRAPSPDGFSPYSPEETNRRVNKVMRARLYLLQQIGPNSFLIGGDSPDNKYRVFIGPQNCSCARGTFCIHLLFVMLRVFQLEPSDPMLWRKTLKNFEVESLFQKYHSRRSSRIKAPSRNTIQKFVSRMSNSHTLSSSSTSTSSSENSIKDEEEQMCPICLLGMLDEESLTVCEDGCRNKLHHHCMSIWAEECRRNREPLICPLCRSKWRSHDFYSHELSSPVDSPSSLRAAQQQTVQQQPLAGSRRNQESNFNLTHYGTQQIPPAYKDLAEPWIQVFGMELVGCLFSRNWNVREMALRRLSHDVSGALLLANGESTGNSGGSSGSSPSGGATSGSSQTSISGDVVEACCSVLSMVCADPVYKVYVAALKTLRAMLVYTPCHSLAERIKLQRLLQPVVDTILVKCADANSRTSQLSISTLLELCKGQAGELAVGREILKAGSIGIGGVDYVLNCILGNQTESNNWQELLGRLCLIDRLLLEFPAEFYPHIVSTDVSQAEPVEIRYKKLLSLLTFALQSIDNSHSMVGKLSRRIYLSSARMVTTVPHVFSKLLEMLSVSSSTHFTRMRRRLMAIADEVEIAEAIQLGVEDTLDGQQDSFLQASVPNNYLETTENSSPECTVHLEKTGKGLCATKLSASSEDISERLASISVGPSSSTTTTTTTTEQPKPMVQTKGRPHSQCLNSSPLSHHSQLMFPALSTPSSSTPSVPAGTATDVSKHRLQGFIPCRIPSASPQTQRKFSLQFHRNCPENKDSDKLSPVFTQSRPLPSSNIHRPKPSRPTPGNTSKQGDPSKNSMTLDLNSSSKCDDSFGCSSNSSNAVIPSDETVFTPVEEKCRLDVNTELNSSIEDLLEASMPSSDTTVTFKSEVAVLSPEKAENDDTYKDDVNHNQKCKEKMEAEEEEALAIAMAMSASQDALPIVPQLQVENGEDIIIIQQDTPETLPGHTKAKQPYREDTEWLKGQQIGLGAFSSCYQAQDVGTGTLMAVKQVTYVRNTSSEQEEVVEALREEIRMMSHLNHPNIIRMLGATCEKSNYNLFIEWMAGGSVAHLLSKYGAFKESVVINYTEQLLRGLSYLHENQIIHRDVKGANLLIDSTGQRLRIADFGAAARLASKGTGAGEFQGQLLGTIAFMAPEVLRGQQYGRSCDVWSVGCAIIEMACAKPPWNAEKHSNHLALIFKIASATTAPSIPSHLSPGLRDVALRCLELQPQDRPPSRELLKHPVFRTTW

[5] = biological target: panel of 468 diverse kinases (Homo sapiens, UniProt Q9UM73, C1156Y); details: ALK(C1156Y); 1000 nM; read-out: Percent Control
[6] = biological target: panel of 468 diverse kinases (Homo sapiens, UniProt P10721, L576P); details: KIT(L576P); 1000 nM; read-out: Percent Control
Sequence of panel of 468 diverse kinases (Homo sapiens, UniProt P10721, L576P) (P10721 26-976 L576P limits assumed): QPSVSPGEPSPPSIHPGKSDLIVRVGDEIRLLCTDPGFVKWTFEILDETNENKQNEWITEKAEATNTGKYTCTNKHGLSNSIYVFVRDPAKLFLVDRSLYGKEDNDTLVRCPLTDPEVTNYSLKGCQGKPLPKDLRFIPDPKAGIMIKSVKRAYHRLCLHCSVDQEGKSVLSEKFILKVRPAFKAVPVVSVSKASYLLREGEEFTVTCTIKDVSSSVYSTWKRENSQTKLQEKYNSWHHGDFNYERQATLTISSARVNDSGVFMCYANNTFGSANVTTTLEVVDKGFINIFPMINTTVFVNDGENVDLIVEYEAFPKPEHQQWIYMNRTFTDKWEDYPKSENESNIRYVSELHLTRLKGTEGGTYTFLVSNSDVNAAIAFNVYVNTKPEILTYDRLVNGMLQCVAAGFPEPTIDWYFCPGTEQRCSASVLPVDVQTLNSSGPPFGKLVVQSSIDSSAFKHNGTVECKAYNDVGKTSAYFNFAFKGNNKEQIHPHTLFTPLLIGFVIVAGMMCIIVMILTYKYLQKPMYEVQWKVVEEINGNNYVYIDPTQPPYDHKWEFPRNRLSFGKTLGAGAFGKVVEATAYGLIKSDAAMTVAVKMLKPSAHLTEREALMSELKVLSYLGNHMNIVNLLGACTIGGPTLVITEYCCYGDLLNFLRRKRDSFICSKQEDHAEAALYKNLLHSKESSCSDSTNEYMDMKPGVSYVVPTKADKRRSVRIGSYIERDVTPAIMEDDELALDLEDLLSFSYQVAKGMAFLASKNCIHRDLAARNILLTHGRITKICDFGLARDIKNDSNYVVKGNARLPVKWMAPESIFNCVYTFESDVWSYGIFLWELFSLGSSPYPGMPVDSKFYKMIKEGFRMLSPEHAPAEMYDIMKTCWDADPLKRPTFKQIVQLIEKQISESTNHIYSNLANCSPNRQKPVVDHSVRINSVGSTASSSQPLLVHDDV

[7] = biological target: panel of 468 diverse kinases (Homo sapiens, UniProt Q9P1W9); details: PIM2; 1000 nM; read-out: Percent Control
[8] = biological target: panel of 468 diverse kinases (Homo sapiens, UniProt P09619); details: PDGFRB; 1000 nM; read-out: Percent Control
[9] = biological target: panel of 468 diverse kinases (Homo sapiens, UniProt Q5VT25); details: MRCKA; 1000 nM; read-out: Percent Control
[10] = biological target: panel of 468 diverse kinases (Homo sapiens, UniProt P19525); details: PRKR; 1000 nM; read-out: Percent Control
Sequence of panel of 468 diverse kinases (Homo sapiens, UniProt P19525) (P19525 2-551 limits assumed): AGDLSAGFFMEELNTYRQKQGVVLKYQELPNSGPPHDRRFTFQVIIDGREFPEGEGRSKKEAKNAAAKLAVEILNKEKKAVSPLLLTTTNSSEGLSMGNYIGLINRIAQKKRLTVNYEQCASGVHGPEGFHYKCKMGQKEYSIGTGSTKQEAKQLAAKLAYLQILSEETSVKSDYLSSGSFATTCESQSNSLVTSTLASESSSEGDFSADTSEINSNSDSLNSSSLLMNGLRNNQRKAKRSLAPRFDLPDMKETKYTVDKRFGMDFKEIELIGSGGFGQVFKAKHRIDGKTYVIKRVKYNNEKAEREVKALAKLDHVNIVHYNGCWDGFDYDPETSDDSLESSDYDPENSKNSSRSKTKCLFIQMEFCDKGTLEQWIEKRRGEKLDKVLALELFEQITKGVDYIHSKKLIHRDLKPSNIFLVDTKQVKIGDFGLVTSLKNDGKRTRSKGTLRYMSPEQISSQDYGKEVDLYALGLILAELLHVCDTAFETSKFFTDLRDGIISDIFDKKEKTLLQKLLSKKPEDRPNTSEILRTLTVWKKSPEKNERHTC

[11] = biological target: panel of 468 diverse kinases (Homo sapiens, UniProt P16234); details: PDGFRA; 1000 nM; read-out: Percent Control
[12] = biological target: panel of 468 diverse kinases (Homo sapiens, UniProt Q15759); details: p38-beta; 1000 nM; read-out: Percent Control
[13] = biological target: panel of 468 diverse kinases (Homo sapiens, UniProt P42336, H1047L); details: PIK3CA(H1047L); 1000 nM; read-out: Percent Control
[14] = biological target: panel of 468 diverse kinases (Homo sapiens, UniProt Q9NYL2); details: ZAK; 1000 nM; read-out: Percent Control
Sequence of panel of 468 diverse kinases (Homo sapiens, UniProt Q9NYL2) (Q9NYL2 2-800 limits assumed): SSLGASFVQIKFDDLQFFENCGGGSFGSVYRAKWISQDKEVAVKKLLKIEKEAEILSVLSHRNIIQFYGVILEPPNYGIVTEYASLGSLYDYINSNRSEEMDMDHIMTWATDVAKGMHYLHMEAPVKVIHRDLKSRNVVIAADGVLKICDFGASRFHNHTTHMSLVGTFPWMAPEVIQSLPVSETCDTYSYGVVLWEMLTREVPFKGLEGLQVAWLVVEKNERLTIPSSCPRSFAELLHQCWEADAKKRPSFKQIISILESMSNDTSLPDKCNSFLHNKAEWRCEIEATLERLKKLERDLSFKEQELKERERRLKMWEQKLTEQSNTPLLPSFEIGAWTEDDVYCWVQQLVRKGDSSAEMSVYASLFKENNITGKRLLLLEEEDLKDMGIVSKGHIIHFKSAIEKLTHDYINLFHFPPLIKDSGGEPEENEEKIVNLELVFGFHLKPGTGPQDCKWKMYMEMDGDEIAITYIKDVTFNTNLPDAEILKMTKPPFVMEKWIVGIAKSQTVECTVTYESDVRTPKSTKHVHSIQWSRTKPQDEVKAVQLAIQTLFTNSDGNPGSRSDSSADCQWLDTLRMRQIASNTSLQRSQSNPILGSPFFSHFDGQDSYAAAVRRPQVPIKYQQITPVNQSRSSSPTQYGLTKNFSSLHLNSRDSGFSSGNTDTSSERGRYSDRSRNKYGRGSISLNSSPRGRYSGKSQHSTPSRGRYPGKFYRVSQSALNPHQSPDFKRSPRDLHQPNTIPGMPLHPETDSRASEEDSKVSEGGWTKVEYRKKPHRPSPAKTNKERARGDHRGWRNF

[15] = biological target: panel of 468 diverse kinases (Homo sapiens, UniProt Q52WX2); details: SBK1; 1000 nM; read-out: Percent Control
[16] = biological target: panel of 468 diverse kinases (Homo sapiens, UniProt Q8IU85); details: CAMK1D; 1000 nM; read-out: Percent Control
[17] = biological target: panel of 468 diverse kinases (Homo sapiens, UniProt Q13557); details: CAMK2D; 1000 nM; read-out: Percent Control
[18] = biological target: panel of 468 diverse kinases (Homo sapiens, UniProt O75676); details: 1000 nM, read-out: Percent Control
[19] = biological target: panel of 468 diverse kinases (Homo sapiens, UniProt P10721, T670I/V559D); details: KIT(V559D,T670I); 1000 nM; read-out: Percent Control
Sequence of panel of 468 diverse kinases (Homo sapiens, UniProt P10721, T670I/V559D) (P10721 26-976 V559D/T670I limits assumed): as the sequence (P10721 26-976 L576P limits assumed) above, with V534D, P551L, T645I counted along it

[20] = biological target: panel of 468 diverse kinases (Homo sapiens, UniProt O60285); details: ARK5; 1000 nM; read-out: Percent Control
[21] = biological target: panel of 468 diverse kinases (Homo sapiens, UniProt Q56UN5); details: YSK4; 1000 nM; read-out: Percent Control
[22] = biological target: panel of 468 diverse kinases (Homo sapiens, UniProt Q8N752); details: CSNKIV1L; 1000 nM; read-out: Percent Control
[23] = biological target: panel of 468 diverse kinases (Homo sapiens, UniProt P36888, D835H); details: FLT3(D835H); 1000 nM; read-out: Percent Control
[24] = biological target: panel of 468 diverse kinases (Homo sapiens, UniProt O75747); details: PIK3C2G; 1000 nM; read-out: Percent Control
[25] = biological target: panel of 468 diverse kinases (Homo sapiens, UniProt Q9UBE8); details: NLK; 1000 nM; read-out: Percent Control
[26] = biological target: panel of 468 diverse kinases (Homo sapiens, UniProt Q8IW41); details: MAPKAPK5; 1000 nM; read-out: Percent Control
[27] = biological target: panel of 468 diverse kinases (Mycobacterium tuberculosis, UniProt P9WI81); details: read-out: Percent Control
Sequence of panel of 468 diverse kinases (Mycobacterium tuberculosis, UniProt P9WI81) (P9WI81 2-626 limits assumed): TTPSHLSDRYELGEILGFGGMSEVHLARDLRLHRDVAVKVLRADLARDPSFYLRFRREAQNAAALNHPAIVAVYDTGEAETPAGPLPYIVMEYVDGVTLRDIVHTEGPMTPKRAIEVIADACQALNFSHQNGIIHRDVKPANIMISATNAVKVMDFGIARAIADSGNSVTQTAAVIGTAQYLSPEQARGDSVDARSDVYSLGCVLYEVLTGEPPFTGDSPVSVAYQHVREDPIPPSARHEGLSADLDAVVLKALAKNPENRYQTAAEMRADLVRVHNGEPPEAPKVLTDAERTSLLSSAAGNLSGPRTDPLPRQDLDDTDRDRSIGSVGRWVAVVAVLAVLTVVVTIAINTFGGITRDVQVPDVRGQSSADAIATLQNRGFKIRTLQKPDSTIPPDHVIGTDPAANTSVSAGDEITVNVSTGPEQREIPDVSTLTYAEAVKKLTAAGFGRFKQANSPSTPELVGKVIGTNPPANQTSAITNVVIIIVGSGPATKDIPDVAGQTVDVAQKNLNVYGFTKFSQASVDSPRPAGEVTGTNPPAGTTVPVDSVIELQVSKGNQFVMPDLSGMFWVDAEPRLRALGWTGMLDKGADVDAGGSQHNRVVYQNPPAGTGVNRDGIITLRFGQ

[28] = biological target: panel of 468 diverse kinases (Homo sapiens, UniProt Q96D53); details: ADCK4; 1000 nM; read-out: Percent Control
[29] = biological target: panel of 468 diverse kinases (Homo sapiens, UniProt P35968); details: VEGFR2; 1000 nM; read-out: Percent Control
[30] = biological target: panel of 468 diverse kinases (Homo sapiens, UniProt Q15208); details: NDR1; 1000 nM; read-out: Percent Control
Sequence of panel of 468 diverse kinases (Homo sapiens, UniProt Q15208) (Q15208 2-465 limits assumed): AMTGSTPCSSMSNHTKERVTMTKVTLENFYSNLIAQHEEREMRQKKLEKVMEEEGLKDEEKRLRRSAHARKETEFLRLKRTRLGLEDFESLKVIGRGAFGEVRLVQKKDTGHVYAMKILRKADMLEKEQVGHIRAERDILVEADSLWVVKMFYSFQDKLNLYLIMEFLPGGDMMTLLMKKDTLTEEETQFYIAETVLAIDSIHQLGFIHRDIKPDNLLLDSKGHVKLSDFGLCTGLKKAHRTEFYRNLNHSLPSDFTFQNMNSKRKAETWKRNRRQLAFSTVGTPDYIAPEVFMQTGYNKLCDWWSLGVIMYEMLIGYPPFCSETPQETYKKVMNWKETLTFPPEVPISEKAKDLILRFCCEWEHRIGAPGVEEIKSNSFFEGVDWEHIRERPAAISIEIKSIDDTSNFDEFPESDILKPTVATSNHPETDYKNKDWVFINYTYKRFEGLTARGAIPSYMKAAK

COc1cc2nc(NC3CC3)nc(NC3CCN(C(C)C)CC3)c2cc1OC [Formula IV]
remaining activity at 1 µM [1]: 100% | remaining activity at 1 µM [2]: 53% | remaining activity at 1 µM [3]: 91% | remaining activity at 1 µM [4]: 54% | remaining activity at 1 µM [5]: 92% | remaining activity at 1 µM [6]: 100% | remaining activity at 1 µM [7]: 91% | remaining activity at 1 µM [8]: 93% | remaining activity at 1 µM [9]: 100% | remaining activity at 1 µM [10]: 99% | remaining activity at 1 µM [11]: 75% | remaining activity at 1 µM [12]: 87% | remaining activity at 1 µM [13]: 90% | remaining activity at 1 µM [14]: 100% | remaining activity at 1 µM [15]: 64% | remaining activity at 1 µM [16]: 100% | remaining activity at 1 µM [17]: 89% | remaining activity at 1 µM ([18]; RPS6KA4(Kin.Dom.1-N-terminal)): 90% | remaining activity at 1 µM ([18]; RPS6KA4(Kin.Dom.2-C-terminal)): 46% | remaining activity at 1 µM [19]: 86% | remaining activity at 1 µM [20]: 98% | remaining activity at 1 µM [21]: 78% | remaining activity at 1 µM [22]: 99% | remaining activity at 1 µM [23]: 81% | remaining activity at 1 µM [24]: 100% | remaining activity at 1 µM [25]: 100% | remaining activity at 1 µM [26]: 63% | remaining activity at 1 µM [27]: 62% | remaining activity at 1 µM [28]: 100% | remaining activity at 1 µM [29]: 45% | remaining activity at 1 µM [30]: 81%
